Source: patent publication US7125990B2, “Imidazolyl derivatives as corticotropin releasing factor inhibitors” (Bristol-Myers Squibb COmpany, priority 2001, dated 2006)

Each molecule was assayed against T1, CRF1 receptors (Homo sapiens, UniProt P34998) (assay: CRF1 receptor radioligand binding assay ([125I]-oCRF competition, IMR-32 cell membranes)). Details: IMR-32 cell membranes, [125I]-oCRF 100 pM; read-out: Ki (CRF-1R).
T1 construct: endogenous in cells; host or cells: IMR-32 cells, transformed with 2.5 µM 5'-bromo-2'-deoxyuridine for 10 days; membrane preparation
T1 sequence (P34998 24-415): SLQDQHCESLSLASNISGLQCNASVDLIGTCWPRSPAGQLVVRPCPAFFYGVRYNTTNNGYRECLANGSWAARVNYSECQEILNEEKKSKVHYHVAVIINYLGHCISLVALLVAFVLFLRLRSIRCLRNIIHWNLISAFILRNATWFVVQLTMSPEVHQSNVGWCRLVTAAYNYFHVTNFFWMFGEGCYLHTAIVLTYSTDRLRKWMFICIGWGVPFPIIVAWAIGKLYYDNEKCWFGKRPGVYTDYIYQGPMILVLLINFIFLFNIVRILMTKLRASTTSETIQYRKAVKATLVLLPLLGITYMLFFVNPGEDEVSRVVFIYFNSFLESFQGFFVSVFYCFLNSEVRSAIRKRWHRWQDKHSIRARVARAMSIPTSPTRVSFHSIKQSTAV
Experimental: CRF1 receptor antagonists, by occupying the same receptors, blocks the accessibility of the receptors to CRF, a hypothalamic factor mediating body's responses to physiological and psychological stress. The following radioligand binding assay examines the ability of the antagonists to bind the CRF1 receptors by assessing their ability to compete with binding of CRF to the receptors in cell membrane.
Tissue culture and membrane preparation. IMR-32 cells were grown at 37° C. in 5% CO2 as a monolayer in medium consisting of MEM supplemented with 10% heat-inactivated fetal bovine serum, 0.1 mM nonessential amino acids, 1 mM sodium pyruvate and 2 mM L-glutamine. […] After transformation, cells were rinsed twice with phosphate-buffered saline, and incubated for 10–15 min. at 4° C. in homogenization buffer consisting of 50 mM Tris (pH 7.2), 10 mM MgCl2 and 2 mM EGTA. Cells were transferred from plates to polypropylene tubes (16×100 mm), homogenized and centrifuged at 32,000×g for 15 min. Pellets were resuspended by homogenization in buffer and centrifuged at 32,000×g for 15 min. Pellets were resuspended in homogenization buffer then stored at −80° C. until needed.
Radioligand binding assays. […] The assay buffer consisted of 50 mM Tris (pH 7.2), 10 mM MgCl2, 0.5% BSA, 0.005% Triton X-100, 10 μg/mL aprotinin and 10 μg/mL leupeptin. Assays were stopped by addition of ice-cold wash buffer (50 mM Tris, pH 7.4 and 0.2% BSA). Filtration over glass fiber filters (Whatman GF/B) previously soaked in 50 mM Tris, pH 7.2 and 1% BSA was carried out using a Brandel cell harvester. Filters were washed with 10 mL of ice-cold wash buffer. Non-specific binding was defined with 10 μM oCRF. IC50 values for oCRF and test compounds were calculated by nonlinear regression using a one-site binding curve (GraphPad Prism).

Question: With `CCCC(CCC)c1c(CC)nc2n1CCN2c1c(C)cc(C)cc1C` [Example 49, 6-Ethyl-5-(1-propyl-butyl)-1-(2,4,6-trimethyl-phenyl)-2,3-dihydro-1H-imidazo[1,2-a]imidazole] as the molecule, how does the Ki read?
Answer: < 1000 nM

Question: How did the Ki turn out when `CCC=C(CCC)c1c(CC)nc2n1CCN2c1c(C)cc(C)cc1Cl` [Example 50, 1-(2-Chloro-4,6-dimethyl-phenyl)-6-ethyl-5-(1-propyl-but-1-enyl)-2,3-dihydro-1H-imidazo[1,2-a]imidazole] was run?
Answer: < 100 nM

Question: Which Ki does the source give for `CCCN(CC1CC1)C(=O)c1c(CC)nc2n1CCCN2c1c(C)cc(C)cc1C` [Example 54, 2-Ethyl-8-(2,4,6-trimethyl-phenyl)-5,6,7,8-tetrahydro-imidazo[1,2-a]pyrimidine-3-carboxylic acid cyclopropylmethyl-propyl-amide] here?
Answer: < 10000 nM

Question: With `CCCN(CC1CC1)C(=O)c1c(C(F)(F)F)nc2n1CCCN2c1c(C)cc(C)cc1C` [Example 55, 2-Trifluoromethyl-8-(2,4,6-trimethyl-phenyl)-5,6,7,8-tetrahydro-imidazo[1,2a]pyrimidine-3-carboxylic acid cyclopropylmethyl-propyl-amide] as the molecule, how does the Ki read?
Answer: < 10000 nM

Question: How did the Ki turn out when `CCCN(CCc1ccccc1)C(=O)c1c(C)nc2n1CCCN2c1c(C)cc(C)cc1C` [Example 56, 2-Methyl-8-(2,4,6-trimethyl-phenyl)-5,6,7,8-tetrahydro-imidazo[1,2-a]pyrimidine-3-carboxylic acid phenethyl-propyl-amide] was run?
Answer: < 10000 nM

Question: Which Ki does the source give for `CCCN(CC1CCC1)C(=O)c1c(C)nc2n1CCCN2c1c(C)cc(C)cc1C` [Example 57, 2-Methyl-8-(2,4,6-trimethyl-phenyl)-5,6,7,8-tetrahydro-imidazo[1,2-a]pyrimidine-3-carboxylic acid cyclobutylmethyl-propyl-amide] here?
Answer: < 10000 nM

Question: How did the Ki turn out when `Cc1cc(C)c(N2CCCn3c2nc(C)c3C(=O)N(CC2CC2)CC2CC2)c(C)c1` [Example 58, 2-Methyl-8-(2,4,6-trimethyl-phenyl)-5,6,7,8-tetrahydro-imidazo[1,2-a]pyrimidine-3-carboxylic acid bis-cyclopropylmethyl-amide] was run?
Answer: < 10000 nM

Question: How did the Ki turn out when `CCCN(Cc1c(C(F)(F)F)nc2n1CCCN2c1c(C)cc(C)cc1C)CC1CC1` [Example 59, Cyclopropylmethyl-propyl-[2-trifluoromethyl-8-(2,4,6-trimethyl-phenyl)-5,6,7,8-tetrahydro-imidazo[1,2-a]pyrimidin-3-ylmethyl]-amine] was run?
Answer: < 100 nM

Question: `Cc1cc(C)c(N2CCCn3c2nc(C(F)(F)F)c3CN2CC=CCC2)c(C)c1` [Example 60, 3-(3,6-Dihydro-2H-pyridin-1-ylmethyl)-2-trifluoromethyl-8-(2,4,6-trimethyl-phenyl)-5,6,7,8-tetrahydro-imidazo[1,2-a]pyrimidine] was tested. Which Ki did it give?
Answer: < 1000 nM

Question: `Cc1cc(C)c(N2CCCn3c2nc(C(F)(F)F)c3CN2CCSCC2)c(C)c1` [Example 61, 3-Thiomorpholin-4-ylmethyl-2-trifluoromethyl-8-(2,4,6-trimethyl-phenyl)-5,6,7,8-tetrahydro-imidazo[1,2-a]pyrimidine] was tested. Which Ki did it give?
Answer: < 1000 nM

Question: Which Ki does the source give for `Cc1cc(C)c(N2CCCn3c2nc(C(F)(F)F)c3CN2CCCCC2)c(C)c1` [Example 62, 3-Piperidin-1-ylmethyl-2-trifluoromethyl-8-(2,4,6-trimethyl-phenyl)-5,6,7,8-tetrahydro-imidazo[1,2-a]pyrimidine] here?
Answer: < 1000 nM

Question: With `Cc1cc(C)c(N2CCCn3c2nc(C(F)(F)F)c3CN2CCCCC2C)c(C)c1` (centres unmarked) [Example 63, 3-(2-Methyl-piperidin-1-ylmethyl)-2-trifluoromethyl-8-(2,4,6-trimethyl-phenyl)-5,6,7,8-tetrahydro-imidazo[1,2-a]pyrimidine] as the molecule, how does the Ki read?
Answer: < 1000 nM

Question: With `Cc1cc(C)c(N2CCCn3c2nc(C(F)(F)F)c3CN2CCC(C)CC2)c(C)c1` [Example 64, 3-(4-Methyl-piperidin-1-ylmethyl)-2-trifluoromethyl-8-(2,4,6-trimethyl-phenyl)-5,6,7,8-tetrahydro-imidazo[1,2-a]pyrimidine] as the molecule, how does the Ki read?
Answer: < 1000 nM

Question: For `Cc1cc(C)c(N2CCCn3c2nc(C(F)(F)F)c3CN(C)Cc2ccccc2)c(C)c1` [Example 65, Benzyl-methyl-[2-trifluoromethyl-8-(2,4,6-trimethyl-phenyl)-5,6,7,8-tetrahydro-imidazo[1,2-a]pyrimidin-3-ylmethyl]-amine], which Ki is on record?
Answer: < 1000 nM

Question: `Cc1cc(C)c(N2CCCn3c2nc(C(F)(F)F)c3CN(C)CCc2ccccc2)c(C)c1` [Example 66, Methyl-phenethyl-[2-trifluoromethyl-8-(2,4,6-trimethyl-phenyl)-5,6,7,8-tetrahydro-imidazo[1,2-a]pyrimidin-3-ylmethyl]-amine] was tested. Which Ki did it give?
Answer: < 1000 nM

Question: For `C=CCN(CC=C)Cc1c(C(F)(F)F)nc2n1CCCN2c1c(C)cc(C)cc1C` [Example 67, Diallyl-[2-trifluoromethyl-8-(2,4,6-trimethyl-phenyl)-5,6,7,8-tetrahydro-imidazo[1,2-a]pyrimidin-3-ylmethyl]-amine], which Ki is on record?
Answer: < 100 nM

Question: `CCCN(CCC)Cc1c(C(F)(F)F)nc2n1CCCN2c1c(C)cc(C)cc1C` [Example 68, Dipropyl-[2-trifluoromethyl-8-(2,4,6-trimethyl-phenyl)-5,6,7,8-tetrahydro-imidazo[1,2-a]pyrimidin-3-ylmethyl]-amine] was tested. Which Ki did it give?
Answer: < 1000 nM

Question: For `CCCCN(C)Cc1c(C(F)(F)F)nc2n1CCCN2c1c(C)cc(C)cc1C` [Example 69, Butyl-methyl-[2-trifluoromethyl-8-(2,4,6-trimethyl-phenyl)-5,6,7,8-tetrahydro-imidazo[1,2-a]pyrimidin-3-ylmethyl]-amine], which Ki is on record?
Answer: < 1000 nM

Question: How did the Ki turn out when `CCCCN(CC)Cc1c(C(F)(F)F)nc2n1CCCN2c1c(C)cc(C)cc1C` [Example 70, Butyl-ethyl-[2-trifluoromethyl-8-(2,4,6-trimethyl-phenyl)-5,6,7,8-tetrahydro-imidazo[1,2-a]pyrimidin-3-ylmethyl]-amine] was run?
Answer: < 1000 nM

Question: Which Ki does the source give for `C=C(C)CN(CC)Cc1c(C(F)(F)F)nc2n1CCCN2c1c(C)cc(C)cc1C` [Example 71, Ethyl-(2-methyl-allyl)-[2-trifluoromethyl-8-(2,4,6-trimethyl-phenyl)-5,6,7,8-tetrahydro-imidazo[1,2-a]pyrimidin-3-ylmethyl]-amine] here?
Answer: < 100 nM

Question: With `Cc1cc(C)c(N2CCCn3c2nc(C(F)(F)F)c3CN2CCC(c3ccccc3)C2)c(C)c1` (centres unmarked) [Example 72, 3-(3-Phenyl-pyrrolidin-1-ylmethyl)-2-trifluoromethyl-8-(2,4,6-trimethyl-phenyl)-5,6,7,8-tetrahydro-imidazo[1,2-a]pyrimidine] as the molecule, how does the Ki read?
Answer: < 1000 nM

Question: For `Cc1cc(C)c(N2CCCn3c2nc(C(F)(F)F)c3CN(CC2CC2)CC(F)(F)F)c(C)c1` [Example 73, Cyclopropylmethyl-(2,2,2-trifluoro-ethyl)-[2-trifluoromethyl-8-(2,4,6-trimethyl-phenyl)-5,6,7,8-tetrahydro-imidazo[1,2-a]pyrimidin-3-ylmethyl]-amine], which Ki is on record?
Answer: < 10 nM

Question: How did the Ki turn out when `Cc1cc(C)c(N2CCCn3c2nc(C(F)(F)F)c3CN(CC2CC2)CC(F)(F)C(F)(F)F)c(C)c1` [Example 74, Cyclopropylmethyl-(2,2,3,3,3-pentafluoro-propyl)-[2trifluoromethyl-8-(2,4,6-trimethyl-phenyl)-5,6,7,8-tetrahydro-imidazo[1,2-a]pyrimidin-3-ylmethyl]-amine] was run?
Answer: < 100 nM

Question: `CCN(Cc1c(C(F)(F)F)nc2n1CCCN2c1c(C)cc(C)cc1C)CC1CC1` [Example 75, Cyclopropylmethyl-ethyl-[2-trifluoromethyl-8-(2,4,6-trimethyl-phenyl)-5,6,7,8-tetrahydro-imidazo[1,2-a]pyrimidin-3-ylmethyl]-amine] was tested. Which Ki did it give?
Answer: < 100 nM

Question: How did the Ki turn out when `Cc1cc(C)c(N2CCCn3c2nc(C(F)(F)F)c3CN(CC2CCC2)CC(F)(F)F)c(C)c1` [Example 76, Cyclobutylmethyl-(2,2,2-trifluoro-ethyl)-[2-trifluoromethyl-8-(2,4,6-trimethyl-phenyl)-5,6,7,8-tetrahydro-imidazo[1,2-a]pyrimidin-3-ylmethyl]-amine] was run?
Answer: < 100 nM

Question: For `CCCN(Cc1c(C(F)(F)F)nc2n1CCCN2c1c(C)cc(C)cc1C)CC1CCC1` [Example 77, Cyclobutylmethyl-propyl-[2-trifluoromethyl-8-(2,4,6-trimethyl-phenyl)-5,6,7,8-tetrahydro-imidazo[1,2-a]pyrimidin-3-ylmethyl]-amine], which Ki is on record?
Answer: < 100 nM
